Key:
Format in all cases: cell-based
[1] = system: Bacillus subtilis (ATCC 27328); assay: MIC and synergy in Tryptic Soy Broth; settings: TSB, 32° C., 2–3 days
Procedure: (§1) One hundred μl of the bacterial suspensions were added to TSB broth containing each biocide or biocide mixture to a final concentration of approximately 10^6 CFU/ml. The inoculated broth was then incubated at 32° C. for 2–3 days. For fungi MIC, 10 μl of the fungi suspensions were pipetted to the solidified Malt agar containing various concentrations of each biocide or the biocide mixture. Final concentration about 10^5 spores/ml. Plates were incubated for 10–12 days at 28° C.
(§2) The lowest concentration of each compound or mixture to inhibit visible growth at 32° C. after 2–3 days for bacteria and at 28° after 10–12 days for fungi were taken as the Minimal Inhibitory Concentration (MIC). The MIC was taken as endpoints of activity. End points for the mixture of HMBO and IPBC where then compared with the end points for the pure active compound when employed individually.
(§3) Synergism was determined by a commonly used method described by Kull, A. C., Eisman, P. C, Sylwestrowicz, H., D. and Mayer, R. L. (1961). Applied Microbiology, 9:538 using the ratio determined by: Qa/QA+Qb/QB=Synergy Index (SI).
Wherein: QA is the concentration of HMBO in parts per million (ppm), acting alone, which produced and end point. Qa is the concentration of HMBO in ppm, in the mixture, which produced and end point. […]

Alternaria alternata = assay: MIC and synergy on Malt Agar; settings: 28° C., 10–12 days
Procedure: as §1, §2, §3
(§4) Wherein: QA is the concentration of HMBO in parts per million (ppm), acting alone, which produced and end point. Qa is the concentration of HMBO in ppm, in the mixture, which produced and end point. QB is the concentration of IPBC in ppm, acting alone, which produced an end point and Qb is the concentraton of IPBC in ppm, in the mixture, which produced an end point.
(§5) When the sum of Qa/QA+Qb/QB is greater than one, antagonism is indicated. When the sum is equal to one, additivity is indicated.

[2] = system: Aspergillus niger (ATCC 6275); assay: MIC and synergy on Malt Agar; settings: 28° C., 10–12 days
Procedure: as §1, §2, §3, §4, §5

[3] = system: mixed culture of Pseudomonas aeruginosa, Enterobacter cloacae, Bacillus subtilis, B. megaterium, B. licheniformis, Aspergillus niger and Penicillium …; assay: Latex paint in-can preservation, ASTM D2574-94, mixed inoculum; set-up: key: 0: no growth; 4: heavy growth
Procedure: The efficacy of each individual compound or their combination was measured in a latex paint artificially contaminated with a mixed inoculum. The microbiological evaluations shown as examples, are based on ASTM D2574–94, “Resistance of emulsion paints in the container to the attack of microorganisms”. Briefly, paint samples (e.g. Polyvinyl Acrylic, PCL 717) were prepared to contain different concentrations of each compound or their mixtures in different concentrations and ratios. Each paint sample thus prepared was then inoculated with a mixed culture of Pseudomonas aeruginosa, Enterobacter cloacae, Bacillus subtilis, B. megaterium, B. licheniformis, Aspergillus niger and Penicillium funiculosum (final concentration of about 10^6 CFU/ml) and re-challenged after 7 days (final concentration of about 10^7 CFU/ml). Paint samples were incubated at 32° C. for the duration of the test and sampled for the presence of viable bacteria on TSA and M plates. Growth was rated on a scale from “0” (no growth) to “4” (heavy growth). A paint sample was considered appropriately preserved if no bacterial growth (“0” rating) was detected after six days incubation in both challenge assays.
The table summarizes the results obtained when mixtures of the low formaldehyde hydroxymethyl oxazolidine (HMBO) (compound A) and IPBC (compound B) in PEG-400 were tested.

Structure (SMILES): OCC12COCN1COC2 [compound A, hydroxymethyl bicyclic oxazolidine]
- Minimal Inhibitory Concentration (MIC), acting alone [1]: 250 ppm
- Minimal Inhibitory Concentration (MIC), acting alone (Alternaria alternata): 250 ppm
- Minimal Inhibitory Concentration (MIC), acting alone [2]: 1,000 ppm
- Growth rating MALT Plates CI 1 ([3]; A alone 500 ppm): 0
- Growth rating MALT Plates CI 2 ([3]; A alone 500 ppm): 0
- Growth rating MALT Plates CI 3 ([3]; A alone 500 ppm): 0
- Growth rating MALT Plates CI 6 ([3]; A alone 500 ppm): 0
- Growth rating MALT Plates CII 1 ([3]; A alone 500 ppm): 0
- Growth rating MALT Plates CII 2 ([3]; A alone 500 ppm): 0
- Growth rating MALT Plates CII 3 ([3]; A alone 500 ppm): 0
- Growth rating MALT Plates CII 6 ([3]; A alone 500 ppm): 0
- Growth rating TSA plates CI 1 ([3]; A alone 500 ppm): 0
- Growth rating TSA plates CI 2 ([3]; A alone 500 ppm): 0
- Growth rating TSA plates CI 3 ([3]; A alone 500 ppm): 0
- Growth rating TSA plates CI 6 ([3]; A alone 500 ppm): 0
- Growth rating TSA plates CII 1 ([3]; A alone 500 ppm): 1
- Growth rating TSA plates CII 2 ([3]; A alone 500 ppm): 1
- Growth rating TSA plates CII 3 ([3]; A alone 500 ppm): 1
- Growth rating TSA plates CII 6 ([3]; A alone 500 ppm): 1
- Growth rating MALT Plates CI 1 ([3]; A alone 520 ppm): 0
- Growth rating MALT Plates CI 2 ([3]; A alone 520 ppm): 0
- Growth rating MALT Plates CI 3 ([3]; A alone 520 ppm): 0
- Growth rating MALT Plates CI 6 ([3]; A alone 520 ppm): 0
- Growth rating MALT Plates CII 1 ([3]; A alone 520 ppm): 0
- Growth rating MALT Plates CII 2 ([3]; A alone 520 ppm): 1
- Growth rating MALT Plates CII 3 ([3]; A alone 520 ppm): 1
- Growth rating MALT Plates CII 6 ([3]; A alone 520 ppm): 0
- Growth rating TSA plates CI 1 ([3]; A alone 520 ppm): 0
- Growth rating TSA plates CI 2 ([3]; A alone 520 ppm): 0
- Growth rating TSA plates CI 3 ([3]; A alone 520 ppm): 0
- Growth rating TSA plates CI 6 ([3]; A alone 520 ppm): 0
- Growth rating TSA plates CII 1 ([3]; A alone 520 ppm): 0
- Growth rating TSA plates CII 2 ([3]; A alone 520 ppm): 0
- Growth rating TSA plates CII 3 ([3]; A alone 520 ppm): 1
- Growth rating TSA plates CII 6 ([3]; A alone 520 ppm): 0

Structure (SMILES): CCCCNC(=O)OCC#CI [compound B, iodopropynyl butyl carbamate]
- Minimal Inhibitory Concentration (MIC), acting alone [1]: 62.5 ppm
- Minimal Inhibitory Concentration (MIC), acting alone (Alternaria alternata): 0.50 ppm
- Minimal Inhibitory Concentration (MIC), acting alone [2]: 0.25 ppm
- Growth rating MALT Plates CI 1 ([3]; B alone 60 ppm): 0
- Growth rating MALT Plates CI 2 ([3]; B alone 60 ppm): 1
- Growth rating MALT Plates CI 3 ([3]; B alone 60 ppm): 0
- Growth rating MALT Plates CI 6 ([3]; B alone 60 ppm): 0
- Growth rating MALT Plates CII 1 ([3]; B alone 60 ppm): 4
- Growth rating MALT Plates CII 2 ([3]; B alone 60 ppm): 4
- Growth rating MALT Plates CII 3 ([3]; B alone 60 ppm): 4
- Growth rating MALT Plates CII 6 ([3]; B alone 60 ppm): 4
- Growth rating TSA plates CI 1 ([3]; B alone 60 ppm): 0
- Growth rating TSA plates CI 2 ([3]; B alone 60 ppm): 0
- Growth rating TSA plates CI 3 ([3]; B alone 60 ppm): 1
- Growth rating TSA plates CI 6 ([3]; B alone 60 ppm): 0
- Growth rating TSA plates CII 1 ([3]; B alone 60 ppm): 4
- Growth rating TSA plates CII 2 ([3]; B alone 60 ppm): 4
- Growth rating TSA plates CII 3 ([3]; B alone 60 ppm): 4
- Growth rating TSA plates CII 6 ([3]; B alone 60 ppm): 3
- Growth rating MALT Plates CI 1 ([3]; B alone 120 ppm): 4
- Growth rating MALT Plates CI 2 ([3]; B alone 120 ppm): 4
- Growth rating MALT Plates CI 3 ([3]; B alone 120 ppm): 2
- Growth rating MALT Plates CI 6 ([3]; B alone 120 ppm): 0
- Growth rating MALT Plates CII 1 ([3]; B alone 120 ppm): 4
- Growth rating MALT Plates CII 2 ([3]; B alone 120 ppm): 4
- Growth rating MALT Plates CII 3 ([3]; B alone 120 ppm): 4
- Growth rating MALT Plates CII 6 ([3]; B alone 120 ppm): 4
- Growth rating TSA plates CI 1 ([3]; B alone 120 ppm): 4
- Growth rating TSA plates CI 2 ([3]; B alone 120 ppm): 2
- Growth rating TSA plates CI 3 ([3]; B alone 120 ppm): 0
- Growth rating TSA plates CI 6 ([3]; B alone 120 ppm): 0
- Growth rating TSA plates CII 1 ([3]; B alone 120 ppm): 4
- Growth rating TSA plates CII 2 ([3]; B alone 120 ppm): 3
- Growth rating TSA plates CII 3 ([3]; B alone 120 ppm): 3
- Growth rating TSA plates CII 6 ([3]; B alone 120 ppm): 3
- Growth rating MALT Plates CI 1 ([3]; B alone 200 ppm): 4
- Growth rating MALT Plates CI 2 ([3]; B alone 200 ppm): 2
- Growth rating MALT Plates CI 3 ([3]; B alone 200 ppm): 1
- Growth rating MALT Plates CI 6 ([3]; B alone 200 ppm): 0
- Growth rating MALT Plates CII 1 ([3]; B alone 200 ppm): 4
- Growth rating MALT Plates CII 2 ([3]; B alone 200 ppm): 4
- Growth rating MALT Plates CII 3 ([3]; B alone 200 ppm): 4
- Growth rating MALT Plates CII 6 ([3]; B alone 200 ppm): 4
- Growth rating TSA plates CI 1 ([3]; B alone 200 ppm): 4
- Growth rating TSA plates CI 2 ([3]; B alone 200 ppm): 2
- Growth rating TSA plates CI 3 ([3]; B alone 200 ppm): 0
- Growth rating TSA plates CI 6 ([3]; B alone 200 ppm): 0
- Growth rating TSA plates CII 1 ([3]; B alone 200 ppm): 4
- Growth rating TSA plates CII 2 ([3]; B alone 200 ppm): 3
- Growth rating TSA plates CII 3 ([3]; B alone 200 ppm): 3
- Growth rating TSA plates CII 6 ([3]; B alone 200 ppm): 3

From patent publication US7115641B2, “Antimicrobial oxazolidine/iodopropynyl-butyl carbamate composition containing less than 0.1wt% free formaldehyde” (ISP Investments Inc., priority 2003, dated 2006)
